# Reference: PubChem BioAssay (NCI)
#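 A five-concentration, 48-hour dose response in 96-well plates underlies each endpoint, interpolated linearly between surrounding concentrations. At the TGI there is no net growth.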
# Columns and labels:
# Assay in all cases: DTP human tumour cell line panel, 48 h
# 786-0 renal = test system: 786-0 renal
# A498 renal = test system: A498 renal
# A549 NSCLC = test system: A549 NSCLC
# ACHN renal = test system: ACHN renal
# CCRF-CEM leukemia = test system: CCRF-CEM leukemia
# COLO 205 colon = test system: COLO 205 colon
# DLD-1 colon = test system: DLD-1 colon
# DMS 273 small cell lung = test system: DMS 273 small cell lung
# EKVX NSCLC = test system: EKVX NSCLC
# HCC-2998 colon = test system: HCC-2998 colon
# HCT-116 colon = test system: HCT-116 colon
# HCT-15 colon = test system: HCT-15 colon
# HL-60(TB) leukemia = test system: HL-60(TB) leukemia
# HOP-62 NSCLC = test system: HOP-62 NSCLC
# HT29 colon = test system: HT29 colon
# IGROV1 ovarian = test system: IGROV1 ovarian
# K-562 leukemia = test system: K-562 leukemia
# KM12 colon = test system: KM12 colon
# KM20L2 colon = test system: KM20L2 colon
# LOX IMVI melanoma = test system: LOX IMVI melanoma
# LXFL 529 NSCLC = test system: LXFL 529 NSCLC
# M14 melanoma = test system: M14 melanoma
# M19-MEL melanoma = test system: M19-MEL melanoma
# MALME-3M melanoma = test system: MALME-3M melanoma
# MOLT-4 leukemia = test system: MOLT-4 leukemia
# NCI-H226 lung = test system: NCI-H226 lung
# NCI-H23 lung = test system: NCI-H23 lung
# NCI-H460 lung = test system: NCI-H460 lung
# NCI-H522 lung = test system: NCI-H522 lung
# OVCAR-3 ovarian = test system: OVCAR-3 ovarian
# OVCAR-4 ovarian = test system: OVCAR-4 ovarian
# OVCAR-5 ovarian = test system: OVCAR-5 ovarian
# OVCAR-8 ovarian = test system: OVCAR-8 ovarian
# RPMI-8226 leukemia = test system: RPMI-8226 leukemia
# SF-268 CNS = test system: SF-268 CNS
# SF-295 CNS = test system: SF-295 CNS
# SK-MEL-2 melanoma = test system: SK-MEL-2 melanoma
# SK-MEL-28 melanoma = test system: SK-MEL-28 melanoma
# SK-MEL-5 melanoma = test system: SK-MEL-5 melanoma
# SK-OV-3 ovarian = test system: SK-OV-3 ovarian
# SN12C renal = test system: SN12C renal
# SNB-19 CNS = test system: SNB-19 CNS
# SNB-75 CNS = test system: SNB-75 CNS
# SNB-78 CNS = test system: SNB-78 CNS
# SR leukemia = test system: SR leukemia
# SW-620 colon = test system: SW-620 colon
# TK-10 renal = test system: TK-10 renal
# U251 CNS = test system: U251 CNS
# UACC-257 melanoma = test system: UACC-257 melanoma
# UACC-62 melanoma = test system: UACC-62 melanoma
# UO-31 renal = test system: UO-31 renal
# XF 498 CNS = test system: XF 498 CNS
# BT-549 breast = test system: BT-549 breast
# CAKI-1 renal = test system: CAKI-1 renal
# DU-145 prostate = test system: DU-145 prostate
# HOP-92 NSCLC = test system: HOP-92 NSCLC
# HS 578T breast = test system: HS 578T breast
# MCF7 breast = test system: MCF7 breast
# MDA-MB-231 breast = test system: MDA-MB-231 breast
# MDA-MB-435 = test system: MDA-MB-435
# MDA-N = test system: MDA-N
# NCI/ADR-RES ovarian = test system: NCI/ADR-RES ovarian
# PC-3 prostate = test system: PC-3 prostate
# RXF 393 renal = test system: RXF 393 renal
# SF-539 CNS = test system: SF-539 CNS
# T-47D breast = test system: T-47D breast
smiles,measurement,setting,value
CCC(/C=C/c1ccccc1)=N\N=C(\C=C\c1ccccc1)CC,TGI,786-0 renal,> 100 µM
same,TGI,A498 renal,> 100 µM
same,TGI,A549 NSCLC,> 100 µM
same,TGI,ACHN renal,> 100 µM
same,TGI,CCRF-CEM leukemia,> 100 µM
same,TGI,COLO 205 colon,> 100 µM
same,TGI,DLD-1 colon,> 100 µM
same,TGI,DMS 273 small cell lung,> 100 µM
same,TGI,EKVX NSCLC,> 100 µM
same,TGI,HCC-2998 colon,> 100 µM
same,TGI,HCT-116 colon,> 100 µM
same,TGI,HCT-15 colon,> 100 µM
same,TGI,HL-60(TB) leukemia,> 100 µM
same,TGI,HOP-62 NSCLC,> 100 µM
same,TGI,HT29 colon,> 100 µM
same,TGI,IGROV1 ovarian,> 100 µM
same,TGI,K-562 leukemia,> 100 µM
same,TGI,KM12 colon,> 100 µM
same,TGI,KM20L2 colon,> 100 µM
same,TGI,LOX IMVI melanoma,> 100 µM
same,TGI,LXFL 529 NSCLC,> 100 µM
same,TGI,M14 melanoma,> 100 µM
same,TGI,M19-MEL melanoma,> 100 µM
same,TGI,MALME-3M melanoma,> 100 µM
same,TGI,MOLT-4 leukemia,> 100 µM
same,TGI,NCI-H226 lung,> 100 µM
same,TGI,NCI-H23 lung,> 100 µM
same,TGI,NCI-H460 lung,> 100 µM
same,TGI,NCI-H522 lung,> 100 µM
same,TGI,OVCAR-3 ovarian,> 100 µM
same,TGI,OVCAR-4 ovarian,> 100 µM
same,TGI,OVCAR-5 ovarian,> 100 µM
same,TGI,OVCAR-8 ovarian,> 100 µM
same,TGI,RPMI-8226 leukemia,> 100 µM
same,TGI,SF-268 CNS,> 100 µM
same,TGI,SF-295 CNS,> 100 µM
same,TGI,SK-MEL-2 melanoma,> 100 µM
same,TGI,SK-MEL-28 melanoma,> 100 µM
same,TGI,SK-MEL-5 melanoma,> 100 µM
same,TGI,SK-OV-3 ovarian,> 100 µM
same,TGI,SN12C renal,> 100 µM
same,TGI,SNB-19 CNS,> 100 µM
same,TGI,SNB-75 CNS,> 100 µM
same,TGI,SNB-78 CNS,> 100 µM
same,TGI,SR leukemia,> 100 µM
same,TGI,SW-620 colon,> 100 µM
same,TGI,TK-10 renal,> 100 µM
same,TGI,U251 CNS,> 100 µM
same,TGI,UACC-257 melanoma,> 100 µM
same,TGI,UACC-62 melanoma,> 100 µM
same,TGI,UO-31 renal,> 100 µM
same,TGI,XF 498 CNS,> 100 µM
COc1ccc2c(c1)N(CCC1CCCCN1C)c1ccccc1S2 (centres undefined),TGI,786-0 renal,29.5 µM
same,TGI,A498 renal,23.8 µM
same,TGI,A549 NSCLC,27.8 µM
same,TGI,ACHN renal,28.1 µM
same,TGI,BT-549 breast,30.4 µM
same,TGI,CAKI-1 renal,21.5 µM
same,TGI,CCRF-CEM leukemia,28.9 µM
same,TGI,COLO 205 colon,30.9 µM
same,TGI,DU-145 prostate,26.2 µM
same,TGI,EKVX NSCLC,36.5 µM
same,TGI,HCT-116 colon,27.2 µM
same,TGI,HCT-15 colon,27.4 µM
same,TGI,HL-60(TB) leukemia,24.8 µM
same,TGI,HOP-62 NSCLC,31.2 µM
same,TGI,HOP-92 NSCLC,22.6 µM
same,TGI,HS 578T breast,26.5 µM
same,TGI,HT29 colon,18.9 µM
same,TGI,IGROV1 ovarian,26.5 µM
same,TGI,K-562 leukemia,18.2 µM
same,TGI,KM12 colon,23.6 µM
same,TGI,LOX IMVI melanoma,25.9 µM
same,TGI,M14 melanoma,10.9 µM
same,TGI,MALME-3M melanoma,33.7 µM
same,TGI,MCF7 breast,24.5 µM
same,TGI,MDA-MB-231 breast,23.6 µM
same,TGI,MDA-MB-435,20.6 µM
same,TGI,MDA-N,25.7 µM
same,TGI,MOLT-4 leukemia,17.2 µM
same,TGI,NCI-H226 lung,47.8 µM
same,TGI,NCI-H23 lung,35.2 µM
same,TGI,NCI-H460 lung,21.5 µM
same,TGI,NCI-H522 lung,28 µM
same,TGI,NCI/ADR-RES ovarian,25.4 µM
same,TGI,OVCAR-3 ovarian,31.4 µM
same,TGI,OVCAR-4 ovarian,24 µM
same,TGI,OVCAR-5 ovarian,31.2 µM
same,TGI,OVCAR-8 ovarian,30.9 µM
same,TGI,PC-3 prostate,22.7 µM
same,TGI,RPMI-8226 leukemia,29.5 µM
same,TGI,RXF 393 renal,21.8 µM
same,TGI,SF-268 CNS,26.6 µM
same,TGI,SF-295 CNS,31.2 µM
same,TGI,SF-539 CNS,74.4 µM
same,TGI,SK-MEL-2 melanoma,29.1 µM
same,TGI,SK-MEL-28 melanoma,14.2 µM
same,TGI,SK-MEL-5 melanoma,24.8 µM
same,TGI,SK-OV-3 ovarian,31 µM
same,TGI,SN12C renal,29.4 µM
same,TGI,SNB-19 CNS,28.9 µM
same,TGI,SNB-75 CNS,24.6 µM
same,TGI,SR leukemia,20.9 µM
same,TGI,SW-620 colon,35.5 µM
same,TGI,T-47D breast,26.3 µM
same,TGI,TK-10 renal,28.1 µM
same,TGI,U251 CNS,23.8 µM
same,TGI,UACC-257 melanoma,17.3 µM
same,TGI,UACC-62 melanoma,25.2 µM
